{"source": "patent US8796001B2", "about": "“Metalloenzyme inhibitor compounds” (Viamet Pharmaceuticals, Inc., priority 2011, dated 2014)"}
{"tested_on": "Puccinia recondita tritici = Puccinia triticina (PUCCRT)", "assay": "Fungicidal activity vs. leaf rust on wheat plants", "type": "in vivo", "details": "wheat (Yuma) sprayed at 50 ppm, inoculated the following day, rated 7-9 days later, read-out: Puccinia Rating (% Disease Control @ 50 ppm)", "from_the_text": "D. Evaluation of Fungicidal Activity vs. Leaf Rust (Causal Agent Puccinia Recondita Tritici=Puccinia Triticina; Bayer Code PUCCRT)\nEach pot contained 3-8 seedlings. These plants were sprayed until wet with the formulated test compounds. The compounds were formulated at 50 ppm in 10 vol. % acetone plus 90 vol. % Triton X water (deionized water 99.99 wt %+0.01 wt % Triton X100), giving a “formulated test compound.” Formulated test compounds were applied to plants using a turn table sprayer fitted with two opposing air atomization nozzles which delivered approximately 1500 L/ha of spray volume. On the following day, the leaves were inoculated with an aqueous spore suspension of Puccinia recondita tritici and the plants were kept in high humidity overnight to permit spores to germinate and infect the leaf. The plants were then transferred to a greenhouse until disease developed on untreated control plants. Disease severity was evaluated 7-9 days later, depending on the speed of disease development.\nIn each case of Table 3, the Puccinia rating scale is as follows: […]", "units": {"pest or weed control at 50 ppm": "%"}}
{"smiles": "N#Cc1ccc(COc2ccc(C(F)(F)C(O)(Cn3cnnn3)c3ccc(F)cc3F)nc2)nc1", "note": "(stereo not drawn) [Compound 50, 6-(((6-(2-(2,4-Difluorophenyl)-1,1-difluoro-2-hydroxy-3-(1H-tetrazol-1-yl)propyl)pyridin-3-yl)oxy)methyl)nicotinonitrile]", "pest or weed control at 50 ppm": "80 to 100"}
{"smiles": "N#Cc1cccc(COc2ccc(C(F)(F)C(O)(Cn3cnnn3)c3ccc(F)cc3F)nc2)c1", "note": "(stereo not drawn) [Compound 52, 3-(((6-(2-(2,4-Difluorophenyl)-1,1-difluoro-2-hydroxy-3-(1H-tetrazol-1-yl)propyl)pyridin-3-yl)oxy)methyl)benzonitrile]", "pest or weed control at 50 ppm": "80 to 100"}
{"smiles": "OC(Cn1cnnn1)(c1ccc(Cl)cc1F)C(F)(F)c1ccc(OCC2CC2)cn1", "note": "(stereo not drawn) [Compound 54, 2-(4-Chloro-2-fluorophenyl)-1-(5-(cyclopropylmethoxy)pyridin-2-yl)-1,1-difluoro-3-(1H-tetrazol-1-yl)propan-2-ol]", "pest or weed control at 50 ppm": "80 to 100"}
{"smiles": "N#Cc1ccc(COc2ccc(C(F)(F)C(O)(Cn3cnnn3)c3ccc(Cl)cc3F)nc2)cc1", "note": "(stereo not drawn) [Compound 55, 4-(((6-(2-(4-Chloro-2-fluorophenyl)-1,1-difluoro-2-hydroxy-3-(1H-tetrazol-1-yl)propyl)pyridin-3-yl)oxy)methyl)benzonitrile]", "pest or weed control at 50 ppm": "80 to 100"}
{"smiles": "N#Cc1ccc(COc2ccc(C(F)(F)C(O)(Cn3cnnn3)c3ccc(F)cc3F)nc2)c(F)c1", "note": "(stereo not drawn) [Compound 57, 4-(((6-(2-(2,4-Difluorophenyl)-1,1-difluoro-2-hydroxy-3-(1H-tetrazol-1-yl)propyl)pyridin-3-yl)oxy)methyl)-3-fluorobenzonitrile]", "pest or weed control at 50 ppm": "80 to 100"}
{"smiles": "N#Cc1ccc(F)c(COc2ccc(C(F)(F)C(O)(Cn3cnnn3)c3ccc(F)cc3F)nc2)c1", "note": "(stereo not drawn) [Compound 59, 3-(((6-(2-(2,4-Difluorophenyl)-1,1-difluoro-2-hydroxy-3-(1H-tetrazol-1-yl)propyl)pyridin-3-yl)oxy)methyl)-4-fluorobenzonitrile]", "pest or weed control at 50 ppm": "80 to 100"}
{"smiles": "N#Cc1ccc(COc2ccc(C(F)(F)C(O)(Cn3cnnn3)c3ccc(Cl)cc3F)nc2)nc1", "note": "(stereo not drawn) [Compound 61, 6-(((6-(2-(4-Chloro-2-fluorophenyl)-1,1-difluoro-2-hydroxy-3-(1H-tetrazol-1-yl)propyl)pyridin-3-yl)oxy)methyl)nicotinonitrile]", "pest or weed control at 50 ppm": "80 to 100"}
{"smiles": "N#Cc1cc(COc2ccc(C(F)(F)C(O)(Cn3cnnn3)c3ccc(F)cc3F)nc2)ccc1F", "note": "(stereo not drawn) [Compound 65, 5-(((6-(2-(2,4-Difluorophenyl)-1,1-difluoro-2-hydroxy-3-(1H-tetrazol-1-yl)propyl)pyridin-3-yl)oxy)methyl)-2-fluorobenzonitrile]", "pest or weed control at 50 ppm": "80 to 100"}
{"smiles": "N#Cc1cccc(COc2ccc(C(F)(F)C(O)(Cn3cnnn3)c3ccc(F)cc3F)nc2)c1F", "note": "(stereo not drawn) [Compound 67, 3-(((6-(2-(2,4-Difluorophenyl)-1,1-difluoro-2-hydroxy-3-(1H-tetrazol-1-yl)propyl)pyridin-3-yl)oxy)methyl)-2-fluorobenzonitrile]", "pest or weed control at 50 ppm": "80 to 100"}
{"smiles": "CC(C)COc1ccc(C(F)(F)C(O)(Cn2cnnn2)c2ccc(Cl)cc2F)nc1", "note": "(stereo not drawn) [Compound 69, 2-(4-Chloro-2-fluorophenyl)-1,1-difluoro-1-(5-isobutoxypyridin-2-yl)-3-(1H-tetrazol-1-yl)propan-2-ol]", "pest or weed control at 50 ppm": "80 to 100"}
{"smiles": "OC(Cn1cnnn1)(c1ccc(Cl)cc1F)C(F)(F)c1ccc(OCC(F)(F)F)cn1", "note": "(stereo not drawn) [Compound 71, 2-(4-Chloro-2-fluorophenyl)-1,1-difluoro-3-(1H-tetrazol-1-yl)-1-(5-(2,2,2-trifluoroethoxy)pyridin-2-yl)propan-2-ol]", "pest or weed control at 50 ppm": "80 to 100"}
{"smiles": "N#Cc1ccc(COc2ccc(C(F)(F)C(O)(Cn3cnnn3)c3ccc(F)cc3F)nc2)s1", "note": "(stereo not drawn) [Compound 73, 5-(((6-(2-(2,4-Difluorophenyl)-1,1-difluoro-2-hydroxy-3-(1H-tetrazol-1-yl)propyl)pyridin-3-yl)oxy)methyl)thiophene-2-carbonitrile]", "pest or weed control at 50 ppm": "80 to 100"}
{"smiles": "OC(Cn1cnnn1)(c1ccc(F)cc1F)C(F)(F)c1ccc(Oc2ccc(C(F)(F)F)cc2)cn1", "note": "(stereo not drawn) [Compound 75, 2-(2,4-Difluorophenyl)-1,1-difluoro-3-(1H-tetrazol-1-yl)-1-(5-(4-(trifluoromethyl)phenoxy)pyridin-2-yl)propan-2-ol]", "pest or weed control at 50 ppm": "80 to 100"}
{"smiles": "OC(Cn1cnnn1)(c1ccc(F)cc1F)C(F)(F)c1ccc(Oc2ccc(OC(F)(F)F)cc2)cn1", "note": "(stereo not drawn) [Compound 76, 2-(2,4-Difluorophenyl)-1,1-difluoro-3-(1H-tetrazol-1-yl)-1-(5-(4-(trifluoromethoxy)phenoxy)pyridin-2-yl)propan-2-ol]", "pest or weed control at 50 ppm": "80 to 100"}
{"smiles": "OC(Cn1cnnn1)(c1ccc(F)cc1F)C(F)(F)c1ccc(Oc2cccc(F)c2)cn1", "note": "(stereo not drawn) [Compound 77, 2-(2,4-Difluorophenyl)-1,1-difluoro-1-(5-(3-fluorophenoxy)pyridin-2-yl)-3-(1H-tetrazol-1-yl)propan-2-ol]", "pest or weed control at 50 ppm": "60 to 79"}
{"smiles": "N#Cc1cccc(Oc2ccc(C(F)(F)C(O)(Cn3cnnn3)c3ccc(F)cc3F)nc2)c1", "note": "(stereo not drawn) [Compound 78, 3-((6-(2-(2,4-Difluorophenyl)-1,1-difluoro-2-hydroxy-3-(1H-tetrazol-1-yl)propyl)pyridin-3-yl)oxy)benzonitrile]", "pest or weed control at 50 ppm": "80 to 100"}
{"smiles": "N#Cc1ccc(Oc2ccc(C(F)(F)C(O)(Cn3cnnn3)c3ccc(Cl)cc3F)nc2)cc1", "note": "(stereo not drawn) [Compound 79, 4-((6-(2-(4-Chloro-2-fluorophenyl)-1,1-difluoro-2-hydroxy-3-(1H-tetrazol-1-yl)propyl)pyridin-3-yl)oxy)benzonitrile]", "pest or weed control at 50 ppm": "80 to 100"}
{"smiles": "N#Cc1ccc(Oc2ccc(C(F)(F)C(O)(Cn3cnnn3)c3ccc(Cl)cc3F)nc2)cc1F", "note": "(stereo not drawn) [Compound 81, 4-((6-(2-(4-Chloro-2-fluorophenyl)-1,1-difluoro-2-hydroxy-3-(1H-tetrazol-1-yl)propyl)pyridin-3-yl)oxy)-2-fluorobenzonitrile]", "pest or weed control at 50 ppm": "80 to 100"}
{"smiles": "N#Cc1ccc(COc2ccc(C(F)(F)C(O)(Cn3ncnn3)c3ccc(F)cc3F)nc2)cc1", "note": "(stereo not drawn) [Compound 83, 4-(((6-(2-(2,4-Difluorophenyl)-1,1-difluoro-2-hydroxy-3-(2H-tetrazol-2-yl)propyl)pyridin-3-yl)oxy)methyl)benzonitrile]", "pest or weed control at 50 ppm": "40 to 59"}
{"smiles": "OC(Cn1cnnn1)(c1ccc(F)cc1F)C(F)(F)c1ccc(Oc2cccc(Cl)c2)cn1", "note": "(stereo not drawn) [Compound 84, 1-(5-(3-Chlorophenoxy)pyridin-2-yl)-2-(2,4-difluorophenyl)-1,1-difluoro-3-(1H-tetrazol-1-yl)propan-2-ol]", "pest or weed control at 50 ppm": "80 to 100"}
{"smiles": "COc1cccc(Oc2ccc(C(F)(F)C(O)(Cn3cnnn3)c3ccc(F)cc3F)nc2)c1", "note": "(stereo not drawn) [Compound 85, 2-(2,4-Difluorophenyl)-1,1-difluoro-1-(5-(3-methoxyphenoxy)pyridin-2-yl)-3-(1H-tetrazol-1-yl)propan-2-ol]", "pest or weed control at 50 ppm": "80 to 100"}
{"smiles": "OC(Cn1cnnn1)(c1ccc(F)cc1F)C(F)(F)c1ccc(Oc2ccc(F)c(F)c2)cn1", "note": "(stereo not drawn) [Compound 86, 1-(5-(3,4-Difluorophenoxy)pyridin-2-yl)-2-(2,4-difluorophenyl)-1,1-difluoro-3-(1H-tetrazol-1-yl)propan-2-ol]", "pest or weed control at 50 ppm": "80 to 100"}
{"smiles": "COc1ccc(Oc2ccc(C(F)(F)C(O)(Cn3cnnn3)c3ccc(F)cc3F)nc2)cc1", "note": "(stereo not drawn) [Compound 87, 2-(2,4-Difluorophenyl)-1,1-difluoro-1-(5-(4-methoxyphenoxy)pyridin-2-yl)-3-(1H-tetrazol-1-yl)propan-2-ol]", "pest or weed control at 50 ppm": "80 to 100"}
{"smiles": "OC(Cn1cnnn1)(c1ccc(F)cc1F)C(F)(F)c1ccc(Oc2ccccc2F)cn1", "note": "(stereo not drawn) [Compound 88, 2-(2,4-Difluorophenyl)-1,1-difluoro-1-(5-(2-fluorophenoxy)pyridin-2-yl)-3-(1H-tetrazol-1-yl)propan-2-ol]", "pest or weed control at 50 ppm": "80 to 100"}
{"smiles": "N#Cc1ccc(Oc2ccc(C(F)(F)C(O)(Cn3cnnn3)c3ccc(F)cc3F)nc2)c(F)c1", "note": "(stereo not drawn) [Compound 89, 4-((6-(2-(2,4-Difluorophenyl)-1,1-difluoro-2-hydroxy-3-(1H-tetrazol-1-yl)propyl)pyridin-3-yl)oxy)-3-fluorobenzonitrile]", "pest or weed control at 50 ppm": "80 to 100"}
{"smiles": "OC(Cn1cnnn1)(c1ccc(F)cc1F)C(F)(F)c1ccc(Oc2ncc(C(F)(F)F)cc2Cl)cn1", "note": "(stereo not drawn) [Compound 92, 1-(5-((3-chloro-5-(trifluoromethyl)pyridin-2-yl)oxy)pyridin-2-yl)-2-(2,4-difluorophenyl)-1,1-difluoro-3-(1H-tetrazol-1-yl)propan-2-ol]", "pest or weed control at 50 ppm": "80 to 100"}
{"smiles": "N#Cc1ccc(Oc2ccc(C(F)(F)C(O)(Cn3cnnn3)c3ccc(F)cc3F)nc2)nc1", "note": "(stereo not drawn) [Compound 93, 6-((6-(2-(2,4-difluorophenyl)-1,1-difluoro-2-hydroxy-3-(1H-tetrazol-1-yl)propyl)pyridin-3-yl)oxy)nicotinonitrile]", "pest or weed control at 50 ppm": "80 to 100"}
{"smiles": "OC(Cn1cnnn1)(c1ccc(F)cc1F)C(F)(F)c1ccc(Oc2ccc(C(F)(F)F)cn2)cn1", "note": "(stereo not drawn) [Compound 94, 2-(2,4-difluorophenyl)-1,1-difluoro-3-(1H-tetrazol-1-yl)-1-(5-((5-(trifluoromethyl)pyridin-2-yl)oxy)pyridin-2-yl)propan-2-ol]", "pest or weed control at 50 ppm": "80 to 100"}
{"smiles": "OC(Cn1cnnn1)(c1ccc(F)cc1F)C(F)(F)c1ccc(Oc2ccc(Cl)cn2)cn1", "note": "(stereo not drawn) [Compound 95, 1-(5-((5-chloropyridin-2-yl)oxy)pyridin-2-yl)-2-(2,4-difluorophenyl)-1,1-difluoro-3-(1H-tetrazol-1-yl)propan-2-ol]", "pest or weed control at 50 ppm": "80 to 100"}
{"smiles": "N#Cc1cc(Oc2ccc(C(F)(F)C(O)(Cn3cnnn3)c3ccc(F)cc3F)nc2)ccn1", "note": "(stereo not drawn) [Compound 96, 4-((6-(2-(2,4-difluorophenyl)-1,1-difluoro-2-hydroxy-3-(1H-tetrazol-1-yl)propyl)pyridin-3-yl)oxy)picolinonitrile]", "pest or weed control at 50 ppm": "60 to 79"}
